Laboratory results taken from the supplement of paper PMC10307832.

Assays:
Assay in all cases: relative viability (nuclei count vs DMSO), 5 days (fraction); higher = more cells survive
[1] = compound: CC(C)C[C@H](NC(=O)[C@H](Cc1ccccc1)NC(=O)c1cnccn1)B(O)O [Bortezomib] + Cc1nc(NC(=O)N2CCC[C@H]2C(N)=O)sc1-c1ccnc(C(C)(C)C(F)(F)F)c1 [Alpelisib] (partner 2 µM)
Outline: (§1)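 Cells from lung cancer lines were seeded into 1536-well plates and, one day later, dosed by pin tool. Treatments were either a single drug or a fixed dose of an anchor drug with five library-drug doses (not always all listed) in √10 steps. After 5 days, nuclei were stained in a one-step fixation (final 0.05% Triton X-100, 1% formaldehyde, 1 ug/ml Hoechst) and counted on 4× images, and relative viability is the treated-to-vehicle nuclei ratio, as the median of duplicate plates.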

[2] = compound: CC1=CC(=NN1)NC2=CC(=NC(=N2)/C=C/C3=CC=CC=C3)N4CCN(CC4)C + CC1(C)CCC(c2ccc(Cl)cc2)=C(CN2CCN(c3ccc(C(=O)NS(=O)(=O)c4ccc(N[C@H](CCN5CCOCC5)CSc5ccccc5)c(S(=O)(=O)C(F)(F)F)c4)cc3)CC2)C1 [Navitoclax] (partner 0.5 µM)
Outline: as §1

[3] = compound: CC1=CC(=NN1)NC2=CC(=NC(=N2)/C=C/C3=CC=CC=C3)N4CCN(CC4)C + C[C@]1(O)C[C@@H](c2nc(-c3ccc4ccc(-c5ccccc5)nc4c3)c3c(N)nccn32)C1 [Linsitinib] (partner 1 µM)
Outline: as §1

[4] = compound: COC1=CC(c2cc3ccccc3[nH]2)=N/C1=C\c1[nH]c(C)cc1C [Obatoclax] + O=C(CCCCCCC(=O)Nc1ccccc1)NO [Vorinostat] (partner 1 µM)
Outline: as §1

Cell Line BEN has a relative viability ([1]; first compound 0.0002 µM) of 0.925, a relative viability ([1]; first compound 0.000632 µM) of 1.09 and a relative viability ([1]; first compound 0.002 µM) of 0.72. The relative viability ([1]; first compound 0.006325 µM) was 0.614, the relative viability ([1]; first compound 0.02 µM) was 0.154 and the relative viability ([2]; first compound 0.08 µM) was 0.0566. For the same cell line, the relative viability ([2]; first compound 0.253 µM) was 0.0746, the relative viability ([2]; first compound 0.8 µM) was 0.188 and the relative viability ([2]; first compound 2.53 µM) was 0.0803. For the same cell line, the relative viability ([2]; first compound 8 µM) was 0.0617, the relative viability ([3]; first compound 0.08 µM) was 0.953 and the relative viability ([3]; first compound 0.253 µM) was 0.955. The relative viability ([3]; first compound 0.8 µM) was 0.96, the relative viability ([3]; first compound 2.53 µM) was 0.76 and the relative viability ([3]; first compound 8 µM) was 0.194. For the same cell line, the relative viability ([4]; first compound 0.01 µM) was 0.594, the relative viability ([4]; first compound 0.03162 µM) was 0.486 and the relative viability ([4]; first compound 0.1 µM) was 0.521. For the same cell line, the relative viability ([4]; first compound 0.3162 µM) was 0.556 and the relative viability ([4]; first compound 1 µM) was 0.621.
CAL-12T was tested, and the relative viability ([1]; first compound 0.0002 µM) was 1.26, the relative viability ([1]; first compound 0.000632 µM) was 1.05 and the relative viability ([1]; first compound 0.002 µM) was 1.11. For the same cell line, the relative viability ([1]; first compound 0.006325 µM) was 0.175, the relative viability ([1]; first compound 0.02 µM) was 0.115 and the relative viability ([2]; first compound 0.08 µM) was 0.918. For the same cell line, the relative viability ([2]; first compound 0.253 µM) was 1.31, the relative viability ([2]; first compound 0.8 µM) was 1.16 and the relative viability ([2]; first compound 2.53 µM) was 0.424. For the same cell line, the relative viability ([2]; first compound 8 µM) was 0.151, the relative viability ([3]; first compound 0.08 µM) was 0.756 and the relative viability ([3]; first compound 0.253 µM) was 0.69. For the same cell line, the relative viability ([3]; first compound 0.8 µM) was 0.979, the relative viability ([3]; first compound 2.53 µM) was 0.49 and the relative viability ([3]; first compound 8 µM) was 0.214. The relative viability ([4]; first compound 0.01 µM) was 0.847, the relative viability ([4]; first compound 0.03162 µM) was 0.883 and the relative viability ([4]; first compound 0.1 µM) was 1.05. It also gave a relative viability ([4]; first compound 0.3162 µM) of 0.521 and a relative viability ([4]; first compound 1 µM) of 0.142.
In the case of COR-L23, the relative viability ([1]; first compound 0.0002 µM) is reported as 0.825, the relative viability ([1]; first compound 0.000632 µM) is reported as 0.698 and the relative viability ([1]; first compound 0.002 µM) is reported as 0.444. It also gave a relative viability ([1]; first compound 0.006325 µM) of 0.0416, a relative viability ([1]; first compound 0.02 µM) of 0.0432 and a relative viability ([2]; first compound 0.08 µM) of 1.02. The relative viability ([2]; first compound 0.253 µM) was 1.07, the relative viability ([2]; first compound 0.8 µM) was 0.884 and the relative viability ([2]; first compound 2.53 µM) was 0.302. The relative viability ([2]; first compound 8 µM) was 0.0578, the relative viability ([3]; first compound 0.08 µM) was 0.868 and the relative viability ([3]; first compound 0.253 µM) was 0.809. It also gave a relative viability ([3]; first compound 0.8 µM) of 0.839, a relative viability ([3]; first compound 2.53 µM) of 0.173 and a relative viability ([3]; first compound 8 µM) of 0.0756. For the same cell line, the relative viability ([4]; first compound 0.01 µM) was 0.562, the relative viability ([4]; first compound 0.03162 µM) was 0.507 and the relative viability ([4]; first compound 0.1 µM) was 0.42. The relative viability ([4]; first compound 0.3162 µM) was 0.166 and the relative viability ([4]; first compound 1 µM) was 0.18.
Cell Line COR-L 105 has a relative viability ([1]; first compound 0.0002 µM) of 0.911, a relative viability ([1]; first compound 0.000632 µM) of 1.04 and a relative viability ([1]; first compound 0.002 µM) of 0.909. It also gave a relative viability ([1]; first compound 0.006325 µM) of 0.237, a relative viability ([1]; first compound 0.02 µM) of 0.227 and a relative viability ([2]; first compound 0.08 µM) of 0.739. The relative viability ([2]; first compound 0.253 µM) was 0.976, the relative viability ([2]; first compound 0.8 µM) was 0.727 and the relative viability ([2]; first compound 2.53 µM) was 0.4. The relative viability ([2]; first compound 8 µM) was 0.206, the relative viability ([3]; first compound 0.08 µM) was 0.815 and the relative viability ([3]; first compound 0.253 µM) was 1.08. For the same cell line, the relative viability ([3]; first compound 0.8 µM) was 1.01, the relative viability ([3]; first compound 2.53 µM) was 0.331 and the relative viability ([3]; first compound 8 µM) was 0.192. The relative viability ([4]; first compound 0.01 µM) was 0.837, the relative viability ([4]; first compound 0.03162 µM) was 0.905 and the relative viability ([4]; first compound 0.1 µM) was 0.885. For the same cell line, the relative viability ([4]; first compound 0.3162 µM) was 0.725 and the relative viability ([4]; first compound 1 µM) was 0.445.
